Experimental data: article PMC11582173, “Synthesis, cytotoxicity, anti-inflammatory, anti-metastatic and anti-oxidant activities of novel chalcones incorporating 2-phenoxy-N-arylacetamide and thiophene moieties: induction of apoptosis in MCF7 and HEP2 cells” (Naunyn-Schmiedeberg's Archives of Pharmacology, 2024)
In brackets after ≈: the same amount, converted by molar mass. Several values for one entry are separate records, joined by “and”; a condition that tells them apart may be missing. Equal entries are not always repeated.

Legend:
[1] = system: human breast carcinoma (MCF7) cells; assay: SRB cytotoxic assay, MCF7; format: cell-based; conditions: MCF7, 48 h
Protocol: (§1) All the prepared compounds were screened at a concentration of 100 µg/mL against six different human cell lines: human laryngeal carcinoma (HEP2), human colorectal carcinoma (HCT116), human breast carcinoma (MCF7), human Lung carcinoma (A549), human liver carcinoma (HEPG2), and normal African Green monkey kidney cell line (VERO). Doxorubicin was used as a positive control for comparison purposes.
(§2) The human laryngeal carcinoma (HEP2), colorectal carcinoma (HCT116), breast carcinoma (MCF7), Lung carcinoma (A549), liver carcinoma (HEPG2), and normal African Green monkey kidney cell line (VERO) were purchased from American Tissue Culture Collection (Rockville, MD, USA). The cells were treated for 48 h with a single dose (100 µg/mL) of all the tested chalcones. […] In brief, the cells were seeded in a 96-well microtiter plate at a concentration of 5×10^3 cells/well in 100 µL fresh RPMI-1640 medium and left to attach to the plates for 24 h. Then, cells were incubated with 100 μL of different concentrations (50, 25, 12.5, 6.25, and 0.0 µg/mL) of 5c in triplicate at 37 °C for 48 h. After that, the cells were fixed with 10 µL cold 100% Trichloroacetic acid (TCA) for 1h at 4 °C. The wells were then washed 1 time with distilled water using (automatic Tecan washer, Germany) and stained for 30 min at room temperature with 50 µL 0.4% SRB dissolved in 1% acetic acid. The plates were air-dried and the dye was solubilized with 100 µl/well of 1M tris base (pH 10.5) for 5 min. The optical density (O.D.) of each well was measured spectrophotometrically at 570 nm with an ELISA microplate reader (Sunrise Tecan reader, Germany) with automatic shaking for 30 seconds before reading. The mean background absorbance was subtracted automatically and mean values for each drug concentration were calculated. The percentage of cell survival was calculated as follows: Survival fraction= O.D. (treated cells)/ O.D. (control cells) (Bhat et al. [2023]).

[2] = system: human liver carcinoma (HEPG2) cells; assay: SRB cytotoxic assay, HEPG2; format: cell-based; conditions: single dose 100 µg/mL, 48 h, read-out: %Inhibition at100 µg/mL HEPG2
Protocol: as §1, §2

[3] = system: Survivin gene; assay: Real-time PCR, Survivin gene expression; format: cell-based, human; conditions: relative to untreated control (1)
Protocol: The expression level of the following six genes (Ki-67, Survivin, Interleukin-1 beta (IL-1B), Interleukin-6 (IL-6), Cyclooxygenase-2 (COX-2) and protein kinase B (AKT1)) was determined in MCF7 and HEP2 treated with the IC50 of compound 5c. The untreated cells were used as a negative control for comparison purposes. […] Ki-67 is a popular proliferation marker for human tumor cells. […] Survivin is an inhibitor of apoptotic protein (IAP) family member, which is essential for cell division. The lowering of the expression of survivin inhibited tumor development, triggered apoptosis, and made tumor cells more susceptible to radiation and chemotherapy (Albadari and Li [2023]). […] IL-1B is a pleiotropic mediator of inflammation, which is produced in response to a variety of stressors (Aarreberg et al. [2019]). […] IL-6 is a pro-inflammatory cytokine that plays a significant role in the proliferation and differentiation of human cells. It promotes the production of numerous proteins involved in acute inflammation (Uciechowski and Dempke [2020]). […]
The expression level of the following six genes (Ki-67, survivin, AKT1, IL-6, COX2, and IL-1B) was examined using real-time polymerase chain reaction (qPCR) (Mohamed et al. [2023a]). […] The cycle threshold (Ct) was determined automatically. […]

[4] = system: MCF7 cells; assay: Flow cytometric analysis of cell cycle, MCF7; format: cell-based, human; conditions: MCF7, IC50 of 5c, 48 h
Protocol: In DMEM-supplemented media, cells were plated in 12-well plates at a cell density of 6–8×10^5 per well. After twenty-four hours, cells were cultured for an additional 48 hours with the IC50 of the target compound. The untreated cells were used as a negative control. After 48 h of incubation, the treated cells were centrifuged at 1,200 rpm and 4 °C for 10 min. After discarding the supernatant, the wells were then given a single phosphate-buffered saline (PBS) wash and then centrifuged for 10 min at 1,200 rpm. Trypsin/EDTA was used to collect the cells, and after one PBS wash, they were resuspended in 0.5 mL of 0.05% Triton X-100 for 10 min at room temperature. Each cell suspension was stained by being given 1 mL of 50 µg/mL propidium iodide (PI) to be left at room temperature in the darkness for 20 minutes. The analysis of the cell cycle was done by a flow cytometer (Becton Dickenson (BD) FACSCalibur, USA) (Michalkova et al. [2022]).

## COc1ccc(NC(=O)COc2ccc(C=CC(=O)c3cccs3)cc2)cc1 [Compound 5c, N-(4-Methoxyphenyl)-2-(4-(3-oxo-3-(thiophen-2-yl)prop-1-en-1-yl)phenoxy)acetamide]
[1]
  IC50: 9.5 µg/mL (≈ 24.1 µM)
[1]; single dose 100 µg/mL, read-out: %Inhibition at100 µg/mL MCF7
  inhibition at 100 µg/mL: > 75%
[2]
  inhibition at 100 µg/mL: 67 ± 1.6%
[3]; HEP2 cells treated with IC50 of 5c
  Survivin expression folding: 0.489±0.07 fold
[3]; MCF7 cells treated with IC50 of 5c
  Survivin expression folding: 0.632±0.0618 fold
[4]; untreated control 8.95±0.38
  Percentage of DNA in G2-M phase: 2.8% and 2.855±0.07778%
[4]; untreated control 45.405±1.97283
  Percentage of DNA in S phase: 42.84% and 42.845±0.4596%
[4]; untreated control 45.585±1.548
  Percentage of DNA in G0-G1 phase: 54.3% and 54.3±0.5374%
